PMC5861220, “The Cytochrome P450-Mediated Metabolism Alternation of Four Effective Lignans From Schisandra chinensis in Carbon Tetrachloride-Intoxicated Rats and Patients With Advanced Hepatocellular Carcinoma” (Frontiers in Pharmacology, 2018)
Like-named read-outs stand apart in the source and are kept apart here.

What was measured:
[1] = Identification of CYP450 isozymes in lignan metabolism, rat liver microsomes (no inhibitor / overall); type: in vitro ADME; conditions: rat, 5 μM, pH 7.4
Method: (§1) The CYP450s involved in the metabolism of schisandrin, schisantherin A, deoxyshisandrin and γ-schisandrin in rat or human liver microsomes were confirmed by comparison of the metabolism ratio before and after the addition of selective inhibitors to CYP450 isozymes. […] The supernate was injected to HPLC-MS for analysis of the four lignans.

[2] = In situ hepatic perfusion of four lignans; type: in vivo, rat; conditions: Sprague-Dawley, rat, perfusate, perfusate AUC(0−1h), n = 3
Method: (§2) In situ liver perfusion was performed similarly as the method described previously (Uraki et al., [2016]). […] The perfusate consisted of Krebs–Hensleit buffer (pH 7.4) containing sodium taurocholate (4.75 mg/L), 1% bovine serum albumin, and glucose (1.2 g/L) was oxygenated using carbogen, 95% O2/5% CO2. The perfusate at 37°C was infused into the portal vein at a flow rate of 30 mL/min in a recirculatory manner. After 10-min equilibration, four schisandra lignans were added to the reservoir (final concentration of 10 μM). Perfusate (0.5 mL) and bile samples were collected at 0, 10, 20, 30, 40, 50, and 60 min after the addition of lignans. The same volume of blank perfusion buffer was immediately added to the reservoir after collection of the perfusate samples. After hepatic perfusion, rat was sacrificed and liver was removed, blotted dry, and weighed.

rat liver = assay: In situ hepatic perfusion of four lignans; type: in vivo; conditions: hepatic perfusion 60 min, 10 μM, n = 3
Method: as §2

[3] = Transport across Caco-2 cell monolayer; type: in vitro ADME; conditions: human, Caco-2
Method: Caco-2 cell (passage 38) was used in the transport experiments. Cells were seeded on polycarbonate filters (12 mm diameter, pore size […]) at 1 × 10^5/cm^2. The cell monolayer was formed 21 days post seeding when the transepithelial electrical resistance (TEER) was above 1,000 Ω• cm^2. Three concentration levels (5, 10, and 50 μM) were set for the four schisandra lignans in the study. After preincubation for 1 h at 37°C, the solution of the four lignans was respectively added to the apical (0.4 mL) or basolateral (0.6 mL) chamber for absorptive (AP → BL) and secretive (BL → AP) permeability test. At the specified timepoints (0.5, 1, 1.5 and 2 h), 50 μL samples (n = 3) were withdrawn from receiver chamber, and meanwhile, 50 μL fresh buffer was added. The four lignans were determined by HPLC-MS method.
The efflux rate (ER) was calculated by the formula ER = Papp (BL → AP)/Papp(AP → BL).

[4] = Pharmacokinetics of four lignans in rats after oral SC alcoholic extract; type: in vivo, rat; conditions: for AUC(0-t) / Cmax / half-life / CL/F / MRT last / Tmax: Sprague-Dawley, rat, plasma, po, 1.5 g/kg/day, oral SC alcoholic extract 1.5 g/kg/day for 4 days, n = 5; for CL/F: read-out: CLz/F (converted); for MRT last: read-out: MRT(0−t); for Tmax: read-out: Tmax
Method: The pharmacokinetic profiles of four lignans were studied in ALI rat after multiple oral administrations of SC alcoholic extract at dose of 1.5 g/kg/day. After the ALI rat was established, SC alcoholic extract suspended in 0.5% sodium carboxymethyl cellulose was given to ALI rats and the control via oral gavage once a day for 4 consecutive days. Before the last dosing, rats were fasted for 12 h while water was taken freely. Blood samples were collected at 0, 0.25, 0.5, 1, 2, 3, 4, 6, 8, 12, 24, 36, and 48 h after the last dosing. A cannula was surgically placed into the jugular vein for collection of blood samples (about 0.1 mL) and blood loss compensation using sterile isotonic saline in the pharmacokinetic study. Plasma was separated by centrifugation and stored at −20°C until analysis. Plasma concentrations of the four lignans were quantified using HPLC-MS analysis developed according to the reported method (Wang et al., [2008]).
Data fitting and pharmacokinetic parameter calculations were carried out using the Winnolin software. Non-compartmental analysis was used to calculate the pharmacokinetic parameters. Parameters, such as AUC and MRT, were calculated using statistical moment method.

[5] = tested on: rat intestine (jejunum segment); assay: In situ intestinal perfusion of four lignans; type: in vivo; conditions: for Perfusate (Percent of the initial dose) / Plasma (Percent of the initial dose) / Intestine (Percent of the initial dose) / Pblood / Plumen: 50 μM, n = 3; for Perfusate (Percent of the initial dose): intestinal perfusion 60 min; for Plasma (Percent of the initial dose) / Intestine (Percent of the initial dose): intestinal perfusion; for Plasma (Percent of the initial dose): mesenteric vein blood
Method: The surgical procedures of intestinal perfusion were conducted according to those published reports (Savina et al., [1981]). Hank's balanced salt solution (HBSS, pH 7.4) with four schisandra lignans (50 μM) at 37°C was infused into the jejunum segment at rate of 0.3 mL/min. Phenol Red (50 μM) was added to serve as a nonabsorbable marker for measuring water flux. Blood samples from mesenteric vein and perfusate were collected at 5-min interval. The plasma separated by centrifugation and perfusate was stored at −20°C until HPLC-MS analysis.
The permeability of four lignans across the rat intestine was calculated based on the disappearance of parent drug from the lumen (Plumen) as well as the appearance of the drug in blood (Pblood) using the following equations (Singhal et al., [1998]):
(1) Plumen = −Q/2πrlLnCout/Cin
(1) Pblood = ΔMB/Δt/2πrl{C}
where r is the radius of the perfused intestinal lumen; l is the length of the segment; Q is the flow rate of perfusate; Cin is the concentration of drug at the start of perfusion; and Cout is the steady-state concentration of drug exiting the lumen. ΔMB/Δt is the rate of drug appearance in mesenteric blood; and {C} is the logarithmic mean concentration of drug in the lumen.

[6] = Identification of CYP450 isozymes in lignan metabolism, human liver microsomes (no inhibitor); type: in vitro ADME; conditions: human, 5 μM, pH 7.4
Method: as §1

- Metabolism rate [1]: 79.6 ± 6.5 nmol/min/mg
- AUC at 10 μM ([2]; pH 7.4, Control rats): 3190 ± 70 ng·h/mL
- Total amount of analyte in bile (rat liver; Control rats): 1.37 ± 0.14 µg
- Total amount of analyte in liver (rat liver; Control rats): 11.10 ± 1.31 µg
- Papp A→B at 2 h, 5 μM ([3]; 5 μM): 1.17 ± 0.16 ×10⁻⁶ cm/s
- Papp B→A at 2 h, 5 μM ([3]; 5 μM): 1.32 ± 0.14 ×10⁻⁶ cm/s
- efflux ratio at 2 h, 5 μM ([3]; 5 μM, ER = Papp (BL → AP)/Papp(AP → BL)): 1.13
- Papp A→B at 2 h, 10 μM ([3]; 10 μM): 1.18 ± 0.09 ×10⁻⁶ cm/s
- Papp B→A at 2 h, 10 μM ([3]; 10 μM): 1.34 ± 0.11 ×10⁻⁶ cm/s
- efflux ratio at 2 h, 10 μM ([3]; 10 μM, ER = Papp (BL → AP)/Papp(AP → BL)): 1.14
- Papp A→B at 2 h, 50 μM ([3]; 50 μM): 1.22 ± 0.16 ×10⁻⁶ cm/s
- Papp B→A at 2 h, 50 μM ([3]; 50 μM): 1.32 ± 0.2 ×10⁻⁶ cm/s
- efflux ratio at 2 h, 50 μM ([3]; 50 μM, ER = Papp (BL → AP)/Papp(AP → BL)): 1.08
- AUC(0-t) ([4]; Control (normal) rats): 5220 ± 1430 ng·h/mL
- Cmax ([4]; Control (normal) rats): 182 ± 103 ng/mL
- half-life ([4]; Control (normal) rats): 15.4 ± 2.52 h
- CL/F ([4]; Control (normal) rats): 54.3 mL/min/kg
- MRT last ([4]; Control (normal) rats): 16.5 ± 0.94 h
- Tmax ([4]; Control (normal) rats): 6.4 ± 0.89 h
- Perfusate (Percent of the initial dose) ([5]; Control rats): 92.57 ± 1.67% of the initial dose
- Plasma (Percent of the initial dose) ([5]; Control rats): 0.84 ± 0.09% of the initial dose
- Intestine (Percent of the initial dose) ([5]; Control rats): 1.66 ± 0.27% of the initial dose
- Pblood ([5]; Control rats): 0.052 ± 0.009 × 10^−4 cm/s
- Plumen ([5]; Control rats): 2.543 ± 0.174 × 10^−4 cm/s
- Increase of remaining amount in perfusate ([5]; intestinal autoperfusion (60 min), CCl4-treated rats vs control): not changed
- Metabolism rate [6]: 194.1 ± 12.9 nmol/min/mg
SMILES: COc1cc2c(c(OC)c1OC)-c1c(cc3c(c1OC)OCO3)C[C@H](C)[C@H](C)C2 [γ-Schisandrin, γ-schisandrin]
- AUC at 10 μM ([2]; pH 7.4, CCl4-intoxicated rats): 3740 ± 70 ng·h/mL
- Total amount of analyte in bile (rat liver; CCl4-intoxicated rats): 1.19 ± 0.28 µg
- Total amount of analyte in liver (rat liver; CCl4-intoxicated rats): 14.25 ± 1.36 µg
- Reduction of systemic clearance (CLz/F) ([4]; CCl4 intoxicated rats vs control rats): ~54%
- AUC(0-t) ([4]; CCl4-intoxicated rats): 11600 ± 3090 ng·h/mL
- Cmax ([4]; CCl4-intoxicated rats): 628 ± 164 ng/mL
- half-life ([4]; CCl4-intoxicated rats): 14.5 ± 5.05 h
- CL/F ([4]; CCl4-intoxicated rats): 25.2 mL/min/kg
- MRT last ([4]; CCl4-intoxicated rats): 15.9 ± 1.24 h
- Tmax ([4]; CCl4-intoxicated rats): 4.2 ± 1.79 h
- Perfusate (Percent of the initial dose) ([5]; CCl4-intoxicated rats): 91.92 ± 1.69% of the initial dose
- Plasma (Percent of the initial dose) ([5]; CCl4-intoxicated rats): 0.82 ± 0.06% of the initial dose
- Intestine (Percent of the initial dose) ([5]; CCl4-intoxicated rats): 1.87 ± 0.20% of the initial dose
- Pblood ([5]; CCl4-intoxicated rats): 0.066 ± 0.018 × 10^−4 cm/s
- Plumen ([5]; CCl4-intoxicated rats): 2.540 ± 0.423 × 10^−4 cm/s
